Measured values published in PMC5974779, “Prediction of Drug-Induced Hepatotoxicity Using Long-Term Stable Primary Hepatic 3D Spheroid Cultures in Chemically Defined Conditions” (Toxicological Sciences, 2018).
Read-outs that look alike come from different tables or passages of the source.

Assays:
[1] = test system: C57BL/6 mouse primary hepatocyte 3D spheroids; test: Animal hepatocyte spheroid hepatotoxicity (ATP viability, 14 days), C57BL/6 (BL6) mouse; assay type: cell-based; conditions: C57BL/6 mouse spheroids, 20× cmax
[2] = test system: CD1 mouse primary hepatocyte 3D spheroids; test: Animal hepatocyte spheroid hepatotoxicity (ATP viability, 14 days), CD1 mouse; assay type: cell-based; conditions: CD1 mouse spheroids, 20× cmax
[3] = test system: Wistar rat primary hepatocyte 3D spheroids; test: Animal hepatocyte spheroid hepatotoxicity (ATP viability, 14 days), Wistar rat; assay type: cell-based; conditions: rat spheroids, 20× cmax
[4] = Animal hepatocyte spheroid hepatotoxicity (ATP viability, 14 days), minipig; assay type: cell-based, Gottingen minipig; conditions: Gottingen, primary minipig hepatocyte 3D spheroids; minipig spheroids, no indication of hepatotoxicity
[5] = test system: rhesus monkey primary hepatocyte 3D spheroids; test: Animal hepatocyte spheroid hepatotoxicity (ATP viability, 14 days), rhesus monkey; assay type: cell-based; conditions: monkey spheroids, 20× cmax
[6] = test system: primary human hepatocytes (PHH) 3D spheroids
in vitro = conditions: human
clinical DILI in man = conditions: cited from earlier work
[7] = therapeutic total cmax; ref PMID; cited from earlier work
[8] = ref DrugBank and Prescribers' Digital Reference database; cited from earlier work
[9] = test system: rat, mouse, dog, and cynomolgus monkey; parameters: method as in Manning and Swartz, 1995; conditions: ref Manning and Swartz, 1995; cited from earlier work
patients = conditions: phase I clinical trial, ref McKenzie et al., 1995, cited from earlier work

Cc1ccc(-c2cc(C(F)(F)F)nn2-c2ccc(S(N)(=O)=O)cc2)cc1 [Celecoxib]
viability [1]: < 2 % of respective controls | viability [2]: < 2 % of respective controls | viability [3]: < 2 % of respective controls | viability at 14 days [4]: > 100% | viability [5]: < 2 % of respective controls | Chemically defined spheroids (this study) 20x [6]: Positive | viability at 14 days, 20 × cmax (in vitro): < 2% | Classified as (clinical DILI in man; in vivo): POS | Clinical DILI class (panel heading of Figure 4) (clinical DILI in man; in vivo): High DILI concern | DILI in vivo (clinical DILI in man; in vivo): POS | FDA (0-8) (clinical DILI in man; in vivo): 3 | Suzuki et al. (2010) (clinical DILI in man; in vivo): 1 | Type of DILI (clinical DILI in man; in vivo): Hepatocellular injury or Cholestatic injury | Cmax [7]: 2550 nM | Extent of hepatic metabolism [8]: Extensive

O=c1[nH]c(=O)n([C@@H]2O[C@H](CO)[C@@H](O)[C@@H]2F)cc1I [Fialuridine]
Chemically defined spheroids (this study) 20x [6]: Positive | hepatotoxicity evaluation in CD-spheroids [6]: successfully detect fialuridine hepatotoxicity at clinically relevant concentrations | indications of hepatotoxicity in preclinical species [9]: did not show indications of hepatotoxicity | Suzuki et al. (2010) (clinical DILI in man; DILI classification score, ref Suzuki et al. (2010)): 2 | FDA (Severity) (clinical DILI in man; FDA drug labeling DILI concern, ref Chen et al., 2011): most DILI concern | FDA (0-8) (clinical DILI in man; FDA drug labeling DILI score, ref Chen et al., 2011): Discontinued | DILI in vivo (clinical DILI in man; clinical DILI classification in man (POS/NEG)): POS | Classified as (clinical DILI in man; clinical DILI classification used in this study, Supplementary Table 2, ref Chen et al., 2011, Guo et al., 2005, O'Brien et al., 2006, Sakatis et al., 2012, Suzuki et al., 2010, Xu et al., 2008): POS | DILI in vivo (clinical DILI in man; clinical DILI classification, Supplementary Table 1, ref Chen et al., 2011, Guo et al., 2005, O'Brien et al., 2006, Sakatis et al., 2012, Suzuki et al., 2010, Xu et al., 2008): POS | O'Brien et al. (2003) (clinical DILI in man; clinical hepatotoxicity classification, ref O'Brien et al. (2003)): Severely | Type of DILI (clinical DILI in man; reported pattern of liver damage, Supplementary Table 2, ref literature): Hepatocellular injury, Cholestatic injury or Mixed hepatitis | Cmax [7]: 640 nM | Extent of hepatic metabolism [8]: Minimal | volunteers with lactic acidosis and acute liver failure (patients; few weeks after commencing therapy): 7 out of 15 | volunteers who died (patients; of the 7 with acute liver failure): 5
